Test results taken from patent US8003801B2 (The Scripps Research Institute, priority 2005, dated 2011).
“And” between values parts separate entries of the source, which are not always exact repeats. Equal values may be shown once. “Also recorded” adds a separate entry of the source. Read-outs that look alike come from different tables or passages of the source.

Columns and labels:
[1] = test system: 1A9 human ovarian cancer cell line; test: 72 hour growth-inhibition (cytotoxicity) assay, 1A9 cells; format: cell-based
[2] = test system: 1A9/PTX10, Taxol-resistant 1A9 cell line (β270 Phe→Val); test: 72 hour growth-inhibition (cytotoxicity) assay, 1A9/PTX10 cells; format: cell-based, human; conditions: for RRp (relative resistance), 1A9/PTX10: IC50 of 1A9/PTX10 divided by IC50 of the parental cell line 1A9
[3] = test system: 1A9/A8, EpoA-resistant 1A9 cell line (β274 Thr→Ile); test: 72 hour growth-inhibition (cytotoxicity) assay, 1A9/A8 cells; format: cell-based, human; conditions: for RRp (relative resistance), 1A9/A8: IC50 of 1A9/A8 divided by IC50 of the parental cell line
[4] = test system: A2780/AD10, drug-resistant clone of human ovarian carcinoma A2780 overexpressing P-glycoprotein; test: 72 hour growth-inhibition (cytotoxicity) assay, A2780/AD10 cells; format: cell-based; conditions: for IC50: 72 hour growth inhibition, sulforhodamine-B staining, mean of 3-5 experiments ± SEM; for RRp (relative resistance), A2780/AD10: IC50 of A2780/AD10 divided by IC50 of the parental cell line
[5] = test system: KB-31 human epidermoid cancer cell line; test: 72 hour growth-inhibition (cytotoxicity) assay, KB-31 cells; format: cell-based
[6] = test system: drug-sensitive and drug-resistant human cancer cell lines; test: Cytotoxicity assays across the panel of cell lines (summary in words); format: cell-based; conditions: summary of Tables 1A-1C
[7] = test system: KB-8511, Taxol-resistant (Pgp-overexpression) KB cell line; test: 72 hour growth-inhibition (cytotoxicity) assay, KB-8511 cells
Protocol: In addition, further cytotoxicity studies were carried out using a pair of drug-sensitive parental human epidermoid carcinoma cells (KB-31) and its Taxol™-resistant Pgp-overexpressing subline (KB-5811).

[8] = Homo sapiens, 1A9, 72 hour growth inhibition, sulforhodamine-B staining, mean of 3-5 independent experiments ± standard error of the mean, read-out: 1A9 IC50
[9] = Homo sapiens, 1A9/ptx-10, 72 hour growth inhibition, sulforhodamine-B staining, mean of 3-5 experiments ± SEM, read-out: 1A9/PTX10 IC50
[10] = Homo sapiens, 1A9, 72 hour growth inhibition, sulforhodamine-B staining, mean of 3-5 experiments ± SEM, read-out: 1A9/A8 IC50
[11] = Homo sapiens, KB 3-1, 72 h, read-out: KB-31 IC50
[12] = read-out: KB-8511 IC50, 72 hour growth inhibition, methylene blue staining, mean of 3-5 experiments ± SEM
[13] = 72 hour growth inhibition, sulforhodamine-B staining, mean of 3-5 independent experiments ± standard error of the mean, read-out: 1A9 IC50
[14] = 72 hour growth inhibition, sulforhodamine-B staining, mean of 3-5 experiments ± SEM, read-out: 1A9/PTX10 IC50
[15] = 72 hour growth inhibition, sulforhodamine-B staining, mean of 3-5 experiments ± SEM, read-out: 1A9/A8 IC50
[16] = ratio of IC50 of EpoB to IC50 of the tested compound in the concurrent assay

| SMILES | IC50 [1, 8] [nM] | IC50 [2, 9] [nM] | IC50 [3, 10] [nM] | IC50 ([4]; Homo sapiens, A2780) [nM] | IC50 [5, 11] [nM] | IC50 [7, 12] [nM] | RRp (relative resistance), 1A9/PTX10 [2] | RRp (relative resistance), 1A9/A8 [3] | RRp (relative resistance), A2780/AD10 [4] | further results |
| --- | --- | --- | --- | --- | --- | --- | --- | --- | --- | --- |
| C/C(=C\C#N)[C@@H]1C[C@@H]2O[C@]2(C)CCC[C@H](C)[C@H](O)[C@@H](C)C(=O)C(C)(C)[C@@H](O)CC(=O)O1 [Compound 21] | > 750 | > 750 | > 750 | > 150 | 346 ± 10.5 | > 1000 | – | – | – | cytotoxicity across the tested cell lines, in words [6]: not found active; also recorded: devoid of any significant cytotoxicity against any of the cell lines tested |
| C/C(=C\c1nc(Cl)c2ncn(C)c2n1)[C@@H]1C[C@@H]2O[C@]2(C)CCC[C@H](C)[C@H](O)[C@@H](C)C(=O)C(C)(C)[C@@H](O)CC(=O)O1 [Compound 17] | 3.7 ± 1.5 | 13.6 ± 7.3 | 4 ± 2.5 | 46.3 ± 33.2 | 1.62 ± 0.22 | 20.2 ± 2.14 | 3.7 | 1.1 | 12.5 | – |
| C/C(=C\c1csc(C)n1)[C@@H]1C[C@@H]2O[C@@H]2CCC[C@H](C)[C@H](O)[C@@H](C)C(=O)C(C)(C)[C@@H](O)CC(=O)O1 [EpoA, reference compound] | – | – | – | – | – | – | 2.1 | 17.1 | 25.7 | IC50 [1, 13]: 2.4 ± 2.6 nM; IC50 [2, 14]: 5.1 ± 2.6 nM; IC50 [3, 15]: 41 ± 7.3 nM; IC50 [4]: 25.4 ± 8.6 nM |
| CSc1nc(/C=C(\C)[C@@H]2C[C@@H]3O[C@]3(C)CCC[C@H](C)[C@H](O)[C@@H](C)C(=O)C(C)(C)[C@@H](O)CC(=O)O2)nc2c1ncn2C [Compound 19] | 1 ± 0.8 | 2 ± 1.5 | 2.8 ± 2.2 | 67 ± 9.8 | 0.36 ± 0.17 | 6.21 ± 0.86 | 2.0 | 2.8 | 16.8 | – |
| CC(=O)O[C@@]12CO[C@@H]1C[C@H](O)[C@@]1(C)C(=O)[C@H](O)C3=C(C)[C@@H](OC(=O)[C@H](O)[C@@H](NC(=O)OC(C)(C)C)c4ccccc4)C[C@@](O)([C@@H](OC(=O)c4ccccc4)[C@H]21)C3(C)C [Taxotere ™, reference compound] | 1.5 ± 1.1 | 32 ± 6.8 | 0.8 ± 0.2 | 29.4 ± 5.4 | – | – | 21.3 | 0.5 | 12.3 | – |
| C/C(=C\c1nnn(COCc2ccccc2)n1)[C@@H]1C[C@@H]2O[C@]2(C)CCC[C@H](C)[C@H](O)[C@@H](C)C(=O)C(C)(C)[C@@H](O)CC(=O)O1 [Compound 20] | 4 ± 0.3 | 49 ± 7 | 16.8 ± 9.2 | > 750 | 0.57 ± 0.08 | 4.44 ± 0.69 | 12.3 | 4.2 | – | – |
| C/C(=C\c1nc(Br)c(Br)n1C)[C@@H]1C[C@@H]2O[C@]2(C)CCC[C@H](C)[C@H](O)[C@@H](C)C(=O)C(C)(C)[C@@H](O)CC(=O)O1 [Compound 12] | > 750 | > 750 | > 750 | 574 | > 1000 | > 1000 | – | – | – | – |
| CSc1nc(/C=C(\C)[C@@H]2C[C@@H]3C[C@]3(C)CCC[C@H](C)[C@H](O)[C@@H](C)C(=O)C(C)(C)[C@@H](O)CC(=O)O2)cs1 [Compound 4, reference compound] | – | – | – | – | – | – | – | – | – | IC50 ([1]; Homo sapiens, 1A9, Table 2, tested epothilone, unit from Table 1A note a, read-out: IC50, 1A9 (Table 2)): 0.1 nM; RAEpoB (relative activity), 1A9 [1, 16]: 6.0; IC50 ([2]; Homo sapiens, 1A9/ptx-10, Table 2, tested epothilone, unit from Table 1A note a, read-out: IC50, 1A9/PTX10 (Table 2)): 0.7 nM; RAEpoB (relative activity), 1A9/PTX10 [2, 16]: 4.4; IC50 ([3]; Homo sapiens, 1A9, Table 2, tested epothilone, unit from Table 1A note a, read-out: IC50, 1A9/A8 (Table 2)): 2.4 nM; RAEpoB (relative activity), 1A9/A8 [3, 16]: 2.7; IC50 ([5]; Homo sapiens, KB 3-1, read-out: IC50, KB-31 (Table 2)): 0.2 nM; IC50 ([7]; read-out: IC50, KB-5811 (Table 2), Table 2, tested epothilone, cell line KB-5811, unit from Table 1A note a): 0.12 nM |
| CC(=O)O[C@H]1C(=O)[C@@]2(C)[C@H]([C@H](OC(=O)c3ccccc3)[C@]3(O)C[C@H](OC(=O)[C@H](O)[C@@H](NC(=O)c4ccccc4)c4ccccc4)C(C)=C1C3(C)C)[C@]1(OC(C)=O)CO[C@@H]1C[C@@H]2O [Taxol ™, reference compound] | – | – | – | > 150 | – | 1130 ± 74 | – | – | – | IC50 ([5]; Homo sapiens, KB 3-1, 72 hour growth inhibition, methylene blue staining, mean of 3-5 experiments ± SEM, read-out: KB-31 IC50): 6.08 ± 1.19 nM |
| C/C(=C\c1c(I)ncn1C)[C@@H]1C[C@@H]2O[C@]2(C)CCC[C@H](C)[C@H](O)[C@@H](C)C(=O)C(C)(C)[C@@H](O)CC(=O)O1 [Compound 10] | > 750 | > 750 | > 750 | 1070 | > 1000 | > 1000 | – | – | 5.9 | – |
| CSc1nc(/C=C(\C)[C@@H]2C[C@@H]3O[C@]3(C)CCC[C@H](C)[C@H](O)[C@@H](C)C(=O)C(C)(C)[C@@H](O)CC(=O)O2)c(SC)n1C [Compound 13] | > 750 | > 750 | 574 | 1.3 ± 0.3 | 240 ± 34 | 247 ± 47.9 | – | – | 2.6 | – |
| C/C(=C\c1cn(C)cn1)[C@@H]1C[C@@H]2O[C@]2(C)CCC[C@H](C)[C@H](O)[C@@H](C)C(=O)C(C)(C)[C@@H](O)CC(=O)O1 [Compound 11] | 181 ± 81.6 | > 750 | 150 | > 750 | 277 ± 122 | > 1000 | – | 0.8 | – | – |
| COc1nc(/C=C(\C)[C@@H]2C[C@@H]3O[C@]3(C)CCC[C@H](C)[C@H](O)[C@@H](C)C(=O)C(C)(C)[C@@H](O)CC(=O)O2)nc2c1ncn2C [Compound 18] | 3.7 ± 1.8 | 19.8 ± 10.6 | 2.2 ± 1.6 | 47.3 ± 36.5 | 0.15 ± 0.09 | 7.45 ± 0.81 | 5.4 | 0.6 | 47.3 | – |
| C/C(=C\c1csc(C)n1)[C@@H]1C[C@@H]2O[C@]2(C)CCC[C@H](C)[C@H](O)[C@@H](C)C(=O)C(C)(C)[C@@H](O)CC(=O)O1 [EpoB, reference compound] | – | – | – | – | – | 0.39 ± 0.02 | 7.9 | 10.1 | 15.7 | IC50 [1, 13]: 0.99 ± 0.8 nM; IC50 ([1]; read-out: EpoB (IC50 in the concurrent assay), 1A9, Table 2, EpoB determined concurrently with the epothilone, unit from Table 1A note a): 0.3 nM and 0.6 nM; IC50 [2, 14]: 7.8 ± 4.6 nM; IC50 ([2]; read-out: EpoB (IC50 in the concurrent assay), 1A9/PTX10, Table 2, EpoB determined concurrently with the epothilone): 3.7 nM and 3.1 nM; IC50 [3, 15]: 10 ± 1.4 nM; IC50 ([3]; read-out: EpoB (IC50 in the concurrent assay), 1A9/A8, Table 2, EpoB determined concurrently with the epothilone): 10 nM and 6.5 nM; IC50 [4]: 56.5 ± 23.3 nM; IC50 ([5]; 72 hour growth inhibition, methylene blue staining, mean of 3-5 experiments ± SEM, read-out: KB-31 IC50): 0.42 ± 0.03 nM; IC50 ([5]; read-out: EpoB (IC50 in the concurrent assay), KB-31, Table 2, EpoB determined concurrently with the epothilone): 0.19 nM |
